From US10328029B2, “Pharmaceutical composition” (Cycle Pharmaceuticals, priority 2014, dated 2019)
Entries after “also recorded” stand apart in the source; their conditions may differ.

Tests used:
Type in all cases: physicochemical
[1] = API stability study of nitisinone under long-term and accelerated storage (HPLC)
Method: Data provided by the stability testing programme was conducted with the substance under investigation stored in the actual packaging used for storage and distribution. This was to determine if the substance remained compliant with the ICH specification criteria when tested over the period of its shelf life plus one year.
A sample of approximately 150 g of substance was used for the testing programme, with individual samples being approximately 7 g in size. The test was designed to simulate the product package, i.e. the sample was packed in a polythene bag, sealed and then placed inside another polythene bag liner. The sample was then held in a fibreboard cask with a fibreboard lid.
The sample was stored in an incubator maintained at 25° C.±2° C./60%±5% relative humidity (RH), and 40° C.±2° C./75%±5% RH.
After testing of an initial sample, a sample was tested at certain time intervals (Table 6), i.e. monthly (0 m, 1 m, 2 m, etc.).
There was no decrease in purity and the cyclised impurity remained below the identification threshold (0.10%) throughout the stability testing (measured by HPLC).
(§1) In the foregoing examples, the HPLC conditions were as follows: […]

[2] = Excipient compatibility: nitisinone mixed with fillers/lubricants, stored at 40° C./75% RH, cyclised impurity by HPLC
Method: In order to identify suitable excipients to develop a temperature stable formulation, 4 standard fillers and 5 lubricants were mixed with nitisinone and stored under accelerated conditions for 1 week and 3 weeks. 10 preparations for each excipient were prepared by weighing approximately 10 mg of nitisinone and 500 mg of the excipient into a glass vial and mixing together by gentle swirling. To 5 lots of preparations, 50 μl of water was added to wet the sample. For a control, 10 preparations of the drug substance were prepared by weighing approximately 10 mg nitisinone into a suitable glass vial and to 5 lots of preparations, 50 μl of water was added to wet the sample.
HPLC analysis was used to quantify the relative amount of the cyclised impurity (RRT 0.7) for each formulation at each time point (Tables 7 and 8).
as §1

[3] = Process stability of nitisinone in acetone, in water and on drying (HPLC purity)
Method: It is a requirement of GMP manufacturing that the final recrystallisation includes a filtration through a polishing filter to remove particulates, and so the GMP process would involve filtration of the hot acetone solution. This means that it is likely that the solution of Nitisinone in acetone at 45° C. could be held at elevated temperature for a prolonged period of time. The stability of stage 1 at 45° C. was tested over a 6 hour period to confirm that the Nitisinone would not degrade under these conditions (Table 4). […] Therefore, acetone could be used in the hot filtration step of the GMP process.
On scale-up, drying from water can often take much longer than on lab scale and could potentially result in degradation of the product, especially with a product that could potentially be prone to hydrolysis. Following filtration of Nitisinone from the final recrystallisation, the filter-cake was washed with water to remove the residual mother liquors. Due to its high solubility in acetone and other organic solvents, a solvent wash was not appropriate as high yield losses would likely be incurred. A water wash also helped remove residual inorganics. Drying studies were therefore carried out to determine the stability of the recrystallised material and try to ensure that there would be no unexpected degradation during the drying phase of the scale-up manufacture (Table 5).
Two separate batches were heated over a 60 hour period with purity and KF values taken (entries 1-10). […] A sample of Nitisinone was suspended in water and heated at 40° C. with no vacuum for 60 hours (entries 11-13), to simulate poor drying. […] A second sample was wetted each morning and dried under vacuum overnight to study the effect of repeatedly wetting and drying the sample (entries 14-19).

Stability of API over time ([1]; 25° C./60% RH, 0 m): 99.90% w/w
Stability of API over time ([1]; 25° C./60% RH, 1 m): 99.87% w/w
Stability of API over time ([1]; 25° C./60% RH, 2 m): 99.88% w/w
Stability of API over time ([1]; 25° C./60% RH, 3 m): 99.91% w/w
Stability of API over time ([1]; 25° C./60% RH, 6 m): 99.91% w/w
Stability of API over time ([1]; 40° C./75% RH, 0 m): 99.90% w/w
Stability of API over time ([1]; 40° C./75% RH, 1 m): 99.89% w/w
Stability of API over time ([1]; 40° C./75% RH, 2 m): 99.88% w/w
Stability of API over time ([1]; 40° C./75% RH, 3 m): 99.92% w/w
Stability of API over time ([1]; 40° C./75% RH, 6 m): 99.96% w/w
Cyclised Impurity - RRT 0.7 ([2]; 1 week, Dry): 0.02 norm %
Cyclised Impurity - RRT 0.7 ([2]; 1 week, Wet (50 μl water)): 0.07 norm %
Cyclised Impurity - RRT 0.7 ([2]; 3 weeks, Dry): 0.13 norm %
Cyclised Impurity - RRT 0.7 ([2]; 3 weeks, Wet (50 μl water)): 0.20 norm %
Cyclised Impurity - RRT 0.7 ([2]; Initial, about 10 mg nitisinone + 500 mg excipient): 0.01 norm %
stability of stage 1 nitisinone in acetone (purity, in words) ([3]; acetone, 45° C., over a 6 hour period): No loss of purity was observed
stability of Nitisinone in water (purity, in words) ([3]; suspended in water, heated at 40° C., no vacuum, 60 hours): No loss of purity was observed
stability of recrystallised Nitisinone to extended drying (purity, in words) ([3]; two batches heated over a 60 hour period): little to no loss in purity
SMILES: O=C1CCCC(=O)C1C(=O)c1ccc(C(F)(F)F)cc1[N+](=O)[O-] [Nitisinone, 2-[2-nitro-4-(trifluoromethyl)benzoyl] cyclohexane-1,3-dione]
API stability with respect to cyclised impurity (in words) ([1]; 25° C./60% RH and 40° C./75% RH, listed as API): no formation of the aforementioned cyclised impurity was observed; also recorded: no deviation from specification
